Reference: ChEMBL document CHEMBL1201862, “PubChem BioAssay data set” (2004)
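Growth conditions: 96-well plates. Treatment: test compound, 48 hours, 5 concentrations. Analysis: linear interpolation between bracketing concentrations; unreached endpoints set to highest concentration. GI50: concentration for 50% inhibition of growth.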 Activity calls are given as the source filed them. No stated cut-off is given here; in the data, active = GI50 up to about 1.1 µM and inactive = higher.

Key:
Test in all cases: NCI-60 cell line screen, 48 h
UACC-257 = test system: UACC-257
CCRF-CEM = test system: CCRF-CEM
IGROV-1 = test system: IGROV-1
SR = test system: SR
MDA-MB-231 = test system: MDA-MB-231
Malme-3M = test system: Malme-3M
SK-MEL-28 = test system: SK-MEL-28
MOLT-4 = test system: MOLT-4
NCI-H522 = test system: NCI-H522
TK-10 = test system: TK-10
DU-145 = test system: DU-145
MDA-N = test system: MDA-N
NCI/ADR-RES = test system: NCI/ADR-RES
NCI-H460 = test system: NCI-H460
A498 = test system: A498
RXF 393 = test system: RXF 393
U-251 = test system: U-251
HCC 2998 = test system: HCC 2998
HOP-62 = test system: HOP-62
HOP-92 = test system: HOP-92

Measured: GI50

CC(N)(Cc1c[nH]c2ccccc12)C(=O)O (configuration not stated)
inactive: UACC-257 > 100 µM | CCRF-CEM > 100 µM | IGROV-1 > 100 µM | SR > 100 µM | MDA-MB-231 > 100 µM | Malme-3M > 100 µM | SK-MEL-28 > 100 µM | MOLT-4 > 100 µM | NCI-H522 > 100 µM | TK-10 > 100 µM | DU-145 > 100 µM | MDA-N > 100 µM | NCI/ADR-RES > 100 µM | NCI-H460 > 100 µM | A498 > 100 µM | RXF 393 > 100 µM | U-251 > 100 µM | HCC 2998 > 100 µM | HOP-62 > 100 µM

O=C1NC(Cc2ccc(O)cc2)C(=O)NC1Cc1ccc(O)cc1 (configuration not stated)
inactive: UACC-257 > 100 µM | CCRF-CEM > 100 µM | IGROV-1 > 100 µM | SR > 100 µM | MDA-MB-231 > 100 µM | HOP-92 > 100 µM | Malme-3M > 100 µM | SK-MEL-28 > 100 µM | MOLT-4 > 100 µM | NCI-H522 > 100 µM | TK-10 > 100 µM | DU-145 24.8 µM | MDA-N 30.1 µM | NCI/ADR-RES > 100 µM | NCI-H460 > 100 µM | A498 > 100 µM | RXF 393 > 100 µM | U-251 > 100 µM | HOP-62 > 100 µM

CCOC(=O)Cc1cc(=O)oc2cc(O)ccc12
inactive: UACC-257 > 100 µM | CCRF-CEM > 100 µM | IGROV-1 > 100 µM | SR > 100 µM | MDA-MB-231 > 100 µM | Malme-3M > 100 µM | SK-MEL-28 > 100 µM | MOLT-4 > 100 µM | NCI-H522 > 100 µM | TK-10 > 100 µM | DU-145 > 100 µM | MDA-N > 100 µM | NCI/ADR-RES > 100 µM | NCI-H460 > 100 µM | A498 > 100 µM | RXF 393 > 100 µM | U-251 > 100 µM

Oc1nc2nnc(COc3ccc(Cl)cc3Cl)n2nc1Cc1ccccc1
inactive: UACC-257 > 100 µM | CCRF-CEM 33 µM | IGROV-1 24.2 µM | SR 36.7 µM | MDA-MB-231 43.2 µM | HOP-92 32.7 µM | Malme-3M > 100 µM | SK-MEL-28 > 100 µM | MOLT-4 > 100 µM | NCI-H522 > 100 µM | TK-10 34.6 µM | DU-145 > 100 µM | MDA-N > 100 µM | NCI/ADR-RES 43.1 µM | NCI-H460 84.5 µM | A498 31.3 µM | RXF 393 21.5 µM | U-251 23.8 µM | HOP-62 47.2 µM

Cn1c(NNc2ccccc2)cc(=O)[nH]c1=O
inactive: UACC-257 95.7 µM | CCRF-CEM 20.6 µM | IGROV-1 48.2 µM | SR 22.6 µM | MDA-MB-231 28.9 µM | HOP-92 63.8 µM | Malme-3M 57.8 µM | SK-MEL-28 37.8 µM | MOLT-4 39.3 µM | NCI-H522 19.1 µM | TK-10 > 100 µM | DU-145 > 100 µM | MDA-N 20.5 µM | NCI/ADR-RES 35.8 µM | NCI-H460 51.9 µM | RXF 393 61.8 µM | U-251 53.5 µM | HCC 2998 27.3 µM | HOP-62 > 100 µM

COc1cc2c(c(OC)c1)/C(=C/Sc1ccccc1)C(=O)N(C(C)(C)C)C2
inactive: UACC-257 30.6 µM | CCRF-CEM 29.2 µM | IGROV-1 22.3 µM | SR 19.8 µM | MDA-MB-231 23.4 µM | HOP-92 1.41 µM | SK-MEL-28 38.9 µM | MOLT-4 21.3 µM | TK-10 54.6 µM | DU-145 > 100 µM | MDA-N 23.5 µM | NCI/ADR-RES 11.7 µM | A498 32.4 µM | U-251 29.8 µM | HCC 2998 37.8 µM | HOP-62 27.5 µM

Nc1nc(Cl)cc(NCC2(CO)CCCCC2)n1
inactive: UACC-257 64.7 µM | CCRF-CEM > 100 µM | IGROV-1 > 100 µM | SR 68.2 µM | MDA-MB-231 > 100 µM | HOP-92 56.9 µM | Malme-3M > 100 µM | SK-MEL-28 > 100 µM | MOLT-4 59.4 µM | NCI-H522 > 100 µM | TK-10 > 100 µM | DU-145 > 100 µM | MDA-N > 100 µM | NCI/ADR-RES 39.7 µM | NCI-H460 > 100 µM | A498 70.8 µM | RXF 393 > 100 µM | U-251 > 100 µM | HOP-62 > 100 µM

CSC(=N/C=C/c1ccccc1)SC
inactive: UACC-257 > 100 µM | CCRF-CEM 98.9 µM | IGROV-1 73.6 µM | SR > 100 µM | MDA-MB-231 > 100 µM | HOP-92 > 100 µM | Malme-3M > 100 µM | SK-MEL-28 > 100 µM | MOLT-4 > 100 µM | NCI-H522 64 µM | DU-145 > 100 µM | MDA-N 55.6 µM | NCI/ADR-RES > 100 µM | NCI-H460 > 100 µM | A498 > 100 µM | RXF 393 25.2 µM | U-251 > 100 µM | HOP-62 > 100 µM

NS(=O)(=O)c1ccc(/N=N/c2cc3ccccc3c(C(=O)O)c2O)cc1
inactive: UACC-257 > 58.2 µM | CCRF-CEM 78 µM | IGROV-1 41.6 µM | SR 2.31 µM | MDA-MB-231 > 52 µM | HOP-92 99.1 µM | Malme-3M > 56.9 µM | SK-MEL-28 > 60.1 µM | MOLT-4 > 57 µM | NCI-H522 > 41 µM | TK-10 > 47.4 µM | DU-145 > 46 µM | MDA-N > 100 µM | NCI/ADR-RES > 64.1 µM | NCI-H460 10.5 µM | A498 > 53.6 µM | RXF 393 > 46.2 µM | U-251 > 39.9 µM | HOP-62 > 59.2 µM

CC(C)(C)COC1C2(OCCO2)C2CCC1(C)C2(C)C (configuration not stated)
inactive: UACC-257 24.9 µM | CCRF-CEM 18.8 µM | IGROV-1 82.8 µM | SR 21.6 µM | MDA-MB-231 31.8 µM | HOP-92 28.1 µM | Malme-3M 29 µM | SK-MEL-28 87.1 µM | MOLT-4 21.4 µM | TK-10 > 100 µM | DU-145 35.7 µM | MDA-N 43.2 µM | NCI/ADR-RES 42 µM | NCI-H460 33.7 µM | A498 > 100 µM | RXF 393 19.6 µM | U-251 18 µM | HCC 2998 37.5 µM | HOP-62 22.1 µM

CCOC(=O)NNC(=O)NCc1ccccc1CNC(=O)NNC(=O)OCC
inactive: UACC-257 > 100 µM | CCRF-CEM > 100 µM | IGROV-1 > 100 µM | SR > 100 µM | MDA-MB-231 > 100 µM | Malme-3M > 100 µM | SK-MEL-28 > 100 µM | MOLT-4 > 100 µM | NCI-H522 > 100 µM | TK-10 > 100 µM | DU-145 > 100 µM | MDA-N > 100 µM | NCI/ADR-RES > 100 µM | NCI-H460 > 100 µM | A498 > 100 µM | RXF 393 > 100 µM | U-251 > 100 µM | HCC 2998 > 100 µM
